Reference: the supplement of paper PMC10307832

Assays:
Experiment in all cases: relative viability (nuclei count vs DMSO), 5 days (fraction); higher = more cells survive
IDH-C35 + Bortezomib = compound: Cc1ccccc1C(C(=O)NC1CCCCC1)N(C(=O)Cn1ccnc1C)c1cccc(F)c1 [IDH-C35] + CC(C)C[C@H](NC(=O)[C@H](Cc1ccccc1)NC(=O)c1cnccn1)B(O)O [Bortezomib] (partner 0.002 µM)
In short: (§1)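 Cells from lung cancer lines were seeded into 1536-well plates and, one day later, dosed by pin tool. Treatments were either a single drug or a fixed dose of an anchor drug with five library-drug doses (not always all listed) in √10 steps. After 5 days, nuclei were stained in a one-step fixation (final 0.05% Triton X-100, 1% formaldehyde, 1 ug/ml Hoechst) and counted on 4× images, and relative viability is the treated-to-vehicle nuclei ratio, as the median of duplicate plates.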

IDH-C35 + Palbociclib = compound: Cc1ccccc1C(C(=O)NC1CCCCC1)N(C(=O)Cn1ccnc1C)c1cccc(F)c1 [IDH-C35] + CC(=O)c1c(C)c2cnc(Nc3ccc(N4CCNCC4)cn3)nc2n(C2CCCC2)c1=O [Palbociclib] (partner 0.5 µM)
In short: as §1

IDH-C35 + AZD7762 = compound: Cc1ccccc1C(C(=O)NC1CCCCC1)N(C(=O)Cn1ccnc1C)c1cccc(F)c1 [IDH-C35] + NC(=O)Nc1cc(-c2cccc(F)c2)sc1C(=O)N[C@H]1CCCNC1 [AZD7762] (partner 0.2 µM)
In short: as §1

[1] = compound: CC1=C(C(=NN1)C)CC2=C(C3=C(S2)N(C(=O)N(C3=O)C)CC(C)C)C(=O)N4C[C@@H](CO4)O + Cc1nc(NC(=O)N2CCC[C@H]2C(N)=O)sc1-c1ccnc(C(C)(C)C(F)(F)F)c1 [Alpelisib] (partner 2 µM)
In short: as §1

Row | Cell Line | relative viability (IDH-C35 + Bortezomib; first compound 0.08 µM) | relative viability (IDH-C35 + Bortezomib; first compound 0.253 µM) | relative viability (IDH-C35 + Bortezomib; first compound 0.8 µM) | relative viability (IDH-C35 + Bortezomib; first compound 8 µM) | relative viability (IDH-C35 + Palbociclib; first compound 0.08 µM) | relative viability (IDH-C35 + Palbociclib; first compound 0.253 µM) | relative viability (IDH-C35 + Palbociclib; first compound 0.8 µM) | relative viability (IDH-C35 + Palbociclib; first compound 8 µM) | relative viability (IDH-C35 + AZD7762; first compound 0.08 µM) | relative viability (IDH-C35 + AZD7762; first compound 0.253 µM) | relative viability (IDH-C35 + AZD7762; first compound 0.8 µM) | relative viability (IDH-C35 + AZD7762; first compound 8 µM) | relative viability ([1]; first compound 0.0025 µM) | relative viability ([1]; first compound 0.007906 µM) | relative viability ([1]; first compound 0.025 µM) | relative viability ([1]; first compound 0.07906 µM) | relative viability ([1]; first compound 0.25 µM) | relative viability (IDH-C35 + Bortezomib; first compound 2.53 µM) | relative viability (IDH-C35 + Palbociclib; first compound 2.53 µM) | relative viability (IDH-C35 + AZD7762; first compound 2.53 µM)
1 | LCLC-97TM1 | 0.616 | 0.691 | 0.53 | 0.511 | 0.192 | 0.22 | 0.213 | 0.27 | 0.265 | 0.384 | 0.143 | 0.192 | 0.276 | 0.206 | 0.257 | 0.188 | 0.228 |  |  | 
2 | NCI-H727 | 0.891 | 0.896 | 0.801 | 0.94 | 0.671 | 0.663 | 0.673 | 0.574 | 0.633 | 0.655 | 0.539 | 0.597 | 0.535 | 0.512 | 0.731 | 0.55 | 0.666 | 0.782 | 0.66 | 0.469
3 | NCI-H1355 | 1.21 | 1.15 | 1.16 | 1.05 | 0.438 | 0.4 | 0.393 | 0.388 | 0.805 | 0.889 | 0.715 | 0.657 | 0.937 | 0.887 | 0.878 | 0.893 | 0.74 | 1.17 | 0.427 | 0.72
4 | HOP-62 | 0.725 | 0.77 | 0.73 | 0.798 | 0.377 | 0.435 | 0.426 | 0.394 | 0.624 | 0.553 | 0.739 | 0.532 | 0.959 | 1.15 | 1.01 | 0.862 | 0.696 |  | 0.419 | 0.519
5 | NCI-H2085 | 1.02 | 1.05 | 0.981 | 0.871 | 0.448 | 0.476 | 0.495 | 0.456 | 1.04 | 1.09 | 0.953 | 0.924 | 0.989 | 0.975 | 0.831 | 0.855 | 0.873 | 0.982 | 0.492 | 0.985
